From patent US7550471B2, “5-alkyl-7-aminotriazolopyrimidines, methods and intermediary product necessary for the production thereof, agents containing said compounds and the use thereof for fighting against harmful mushrooms” (BASF Aktiengesellschaft, priority 2002, dated 2009)

Test system: Alternaria solani
Test: Activity against early blight of tomato caused by Alternaria solani
Assay type: in vivo
Settings: 250 ppm active compound, tomato plants sprayed one day before infection, assessed after 5 days; untreated plants 90% infected
Method: The active compounds were formulated separately as a stock solution comprising 0.25% by weight of active compound in acetone or DMSO. 1% by weight of the emulsifier Uniperol® EL (wetting agent having emulsifying and dispersing action based on ethoxylated alkylphenols) was added to this solution. The stock solutions of the active compounds were diluted with water to the stated concentration. Leafs of potted plants of the cultivar “Groβe Fleischtomate St. Pierre” were sprayed to run off point with an aqueous suspension having the concentration of active compound stated below. The next day, the leaves were infected with an aqueous spore suspension of Alternaria solani in a 2% strength biomalt solution of a density of 0.17×10^6 spores/ml. The plants were then placed in a water-vapor-saturated chamber at 20-22° C. After 5 days, the early blight on the untreated but infected control plants had developed to such an extent that the infection could be determined visually in %.

Cc1nc2ncnn2c(N2CCC(C)CC2)c1C1CCCC1 [Compound I-1, 5-methyl-6-cyclopentyl-7-(4-methyl-piperidin-1-yl)-[1,2,4]triazolo[1,5-a]pyrimidine]
infection (early blight, determined visually in %): no infection
